Reference: paper PMC9251005, “CT295 Is Chlamydia trachomatis’ Phosphoglucomutase and a Type 3 Secretion Substrate” (Frontiers in Cellular and Infection Microbiology, 2022)

Columns and labels:
Format in all cases: biochemical
CpsG-HIS [1] = target: T1, CpsG-HIS (Escherichia coli, UniProt P24175); experiment: HPAEC-PAD product analysis with and without cofactor; details: 0.2 mg/ml Glc1,6diP, 0.66 mg/ml Glc1P, 10 mM Tris-HCl, 0.5 mM MgSO4, pH 8.0, 37°C, 20 min
T1 construct: gene manB; C-terminal polyhistidine tag, E. coli BL21(DE3), Ni-NTA and Superdex 200
T1 sequence (P24175 1-456): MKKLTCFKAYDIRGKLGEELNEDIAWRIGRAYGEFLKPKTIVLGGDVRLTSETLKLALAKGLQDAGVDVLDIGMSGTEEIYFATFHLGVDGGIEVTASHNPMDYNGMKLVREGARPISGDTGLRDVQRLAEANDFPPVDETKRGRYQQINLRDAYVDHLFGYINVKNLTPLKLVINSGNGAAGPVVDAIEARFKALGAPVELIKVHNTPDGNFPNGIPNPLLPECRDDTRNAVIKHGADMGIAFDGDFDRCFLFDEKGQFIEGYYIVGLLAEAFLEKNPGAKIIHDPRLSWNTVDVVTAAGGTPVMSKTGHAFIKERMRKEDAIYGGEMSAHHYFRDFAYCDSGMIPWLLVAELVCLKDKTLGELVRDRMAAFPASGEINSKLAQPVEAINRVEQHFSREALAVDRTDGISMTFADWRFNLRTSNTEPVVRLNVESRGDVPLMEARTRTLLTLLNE

CCA00344-HIS = target: T2, CCA00344-HIS (Chlamydia caviae, UniProt Q823R2); experiment: HPAEC-PAD product analysis; details: 0.2 mg/ml Glc1,6diP, 0.1 mg/ml enzyme, 10 mM Tris-HCl, 0.5 mM MgSO4, pH 8.0, 37°C, 20 min
T2 construct: gene CCA_00344; C-terminal polyhistidine tag, E. coli BL21(DE3), Ni-NTA and Superdex 200

CpsG-HIS [2] = target: T1, CpsG-HIS; experiment: HPAEC-PAD product analysis; details: 0.66 mg/ml Glc1P, 0.2 mg/ml Glc1,6diP, 0.1 mg/ml enzyme, 10 mM Tris-HCl, 0.5 mM MgSO4, pH 8.0, 37°C, 20 min
CT815-HIS = target: T3, CT815-HIS (Chlamydia trachomatis, UniProt O84822); experiment: HPAEC-PAD product analysis; details: 0.66 mg/ml Glc1P, 0.2 mg/ml Glc1,6diP, 0.1 mg/ml enzyme, 10 mM Tris-HCl, 0.5 mM MgSO4, pH 8.0, 37°C, 20 min
T3 construct: gene glmM; pET28a, C-terminal polyhistidine tag, E. coli BL21(DE3), Ni-NTA and Superdex 200

Flag-CT295 = target: T4, Flag-CT295 (Chlamydia trachomatis, UniProt O84297); experiment: HPAEC-PAD product analysis, enzyme on anti-Flag beads; details: 0.66 mg/ml Glc1P, no Glc1,6diP, 10 mM Tris-HCl, 0.5 mM MgSO4, pH 8.0, 37°C, 20 min; immobilised enzyme
T4 construct: gene mrsA_1; N-terminal Flag tag, expressed in HEK293T, immobilised on anti-Flag beads
T4 sequence (O84297 entry or part of it): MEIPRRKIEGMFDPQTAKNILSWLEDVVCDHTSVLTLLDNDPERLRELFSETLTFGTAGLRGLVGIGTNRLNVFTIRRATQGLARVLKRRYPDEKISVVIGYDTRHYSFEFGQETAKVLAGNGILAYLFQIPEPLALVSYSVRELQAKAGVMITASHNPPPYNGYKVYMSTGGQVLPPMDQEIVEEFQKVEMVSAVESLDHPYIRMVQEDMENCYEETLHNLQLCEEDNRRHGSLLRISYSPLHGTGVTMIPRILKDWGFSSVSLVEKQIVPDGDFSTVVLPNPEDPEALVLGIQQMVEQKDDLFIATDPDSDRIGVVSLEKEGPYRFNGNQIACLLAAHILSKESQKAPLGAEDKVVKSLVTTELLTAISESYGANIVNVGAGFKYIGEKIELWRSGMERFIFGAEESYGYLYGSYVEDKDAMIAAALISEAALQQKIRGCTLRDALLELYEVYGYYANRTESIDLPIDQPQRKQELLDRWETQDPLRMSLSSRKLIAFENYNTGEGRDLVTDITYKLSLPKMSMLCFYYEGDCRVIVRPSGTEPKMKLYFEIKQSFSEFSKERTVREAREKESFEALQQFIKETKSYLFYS

T2 sequence (Q823R2 entry or part of it): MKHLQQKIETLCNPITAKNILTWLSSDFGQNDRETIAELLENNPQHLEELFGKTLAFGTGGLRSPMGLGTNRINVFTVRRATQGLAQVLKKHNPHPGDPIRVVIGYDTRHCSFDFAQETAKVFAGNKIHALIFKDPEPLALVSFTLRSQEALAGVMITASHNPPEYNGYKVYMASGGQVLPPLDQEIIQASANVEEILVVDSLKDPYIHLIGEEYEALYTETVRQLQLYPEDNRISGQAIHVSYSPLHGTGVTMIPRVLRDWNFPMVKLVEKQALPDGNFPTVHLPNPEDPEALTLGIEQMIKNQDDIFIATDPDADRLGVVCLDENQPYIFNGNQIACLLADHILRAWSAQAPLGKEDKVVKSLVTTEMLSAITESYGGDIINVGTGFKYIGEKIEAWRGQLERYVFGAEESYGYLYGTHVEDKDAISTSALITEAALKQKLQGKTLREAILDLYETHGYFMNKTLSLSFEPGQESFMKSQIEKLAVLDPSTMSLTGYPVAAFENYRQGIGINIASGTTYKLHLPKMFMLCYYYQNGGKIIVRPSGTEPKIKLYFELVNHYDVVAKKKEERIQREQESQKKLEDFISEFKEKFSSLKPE
T3 sequence (O84822 whole entry): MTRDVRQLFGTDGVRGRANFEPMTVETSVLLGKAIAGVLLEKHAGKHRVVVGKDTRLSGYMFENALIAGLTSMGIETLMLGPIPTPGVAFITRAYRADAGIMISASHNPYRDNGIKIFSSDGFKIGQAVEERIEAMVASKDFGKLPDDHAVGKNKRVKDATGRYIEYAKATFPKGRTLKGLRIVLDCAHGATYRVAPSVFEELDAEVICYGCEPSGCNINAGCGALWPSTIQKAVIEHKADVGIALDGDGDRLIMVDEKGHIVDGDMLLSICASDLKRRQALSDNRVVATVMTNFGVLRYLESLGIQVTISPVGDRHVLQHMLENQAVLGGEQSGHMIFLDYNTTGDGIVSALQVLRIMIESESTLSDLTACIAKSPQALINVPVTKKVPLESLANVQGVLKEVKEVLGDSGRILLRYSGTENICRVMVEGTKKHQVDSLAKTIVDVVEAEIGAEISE

With `O=P(O)(O)OC[C@H]1O[C@H](OP(=O)(O)O)[C@H](O)[C@@H](O)[C@@H]1O` [Glc1,6diP] the “HPAEC-PAD product analysis with and without cofactor” value (CpsG-HIS [1]) was “CpsG-HIS required the presence of Glc1,6diP to convert Glc1P into Glc6P”.

`O=P(O)(O)O[C@H]1O[C@H](CO)[C@@H](O)[C@H](O)[C@H]1O` [Glc1P] was tested, and the HPAEC-PAD product analysis (CCA00344-HIS; 0.66 mg/ml Glc1P) was “Incubation of Glc1P in the presence of CCA00344-HIS led to its full conversion into Glc6P”, the HPAEC-PAD product analysis (CpsG-HIS [2]) was “CpsG-HIS required the presence of Glc1,6diP to convert Glc1P into Glc6P” and the HPAEC-PAD product analysis (CT815-HIS) was “only low levels of Glc6P were detected in the presence of CT815-HIS”. The “HPAEC-PAD product analysis, enzyme on anti-Flag beads” value (Flag-CT295) was “These data demonstrated the ability of CT295 to convert Glc1P into Glc6P”.

For `O=P(O)(O)OC[C@H]1OC(O)[C@H](O)[C@@H](O)[C@@H]1O` (stereo partly drawn) [Glc6P], the HPAEC-PAD product analysis (CCA00344-HIS; 0.33 mg/ml Glc6P, reverse reaction) was “very low amounts of Glc1P were detected after incubation with CCA00344-HIS or CpsG-HIS”.
